Read-outs that look alike come from different tables or passages of the source.
What was measured:
[1] = test system: RSV (Respiratory Syncytial Virus strain A2); assay: RSV cytopathic effects (CPE) assay; type: cell-based; settings: human respiratory syncytial virus
Method: The activity of anti-RSV compounds and conjugates was determined using an in vitro cell-based assay following a standard protocol in the field. Briefly, ten four-fold serial dilutions of each test article (TA) starting at 10 μM were prepared in duplicate and incubated with RSV (Respiratory Syncytial Virus strain A2) at a multiplicity of infection (MOI) of 0.01, for one hour. The RSV-TA mix was then added to HEp-2 cells seeded in 96-well plates and incubated for one hour.

RSV A2 strain = assay: RSV microneutralization assay, RSV A2 strain; type: cell-based; settings: MOI 0.002, HEp-2 cells, day 6
Method: (§1) HEp-2 cells (ATCC #CCL-23) were seeded at 5E4/well/200 μL in DMEM (Fisher cat #11965118) supplemented with 10% heat-inactivated (HI) fetal bovine serum (HI-FBS; Fisher cat #10-082-147), 1× penicillin-streptomycin (P/S, 100 μg/mL; Fisher cat #MT30002C), and 1× L-glutamine (L-Gln, 2 mM; Fisher cat #25030-164) in 96-well tissue culture treated plates (Fisher cat #08-772-17) and incubated overnight at 37° C. and 5% CO2. Duplicate 10-fold serial dilutions of compound in DMEM with 2% HI-FBS, 1× P/S, 2 mM L-Gln were prepared in 96-well tissue culture plates at 60 μL/well. The RSV Long strain (RetroVirox, San Diego), RSV A2 strain (Virapur, San Diego), RSV B1 strain (RetroVirox, San Diego), or RSV strain CH18537 (RetroVirox, San Diego), were diluted in DMEM with 2% HI-FBS, 1× P/S, 2 mM L-Gln and 60 μL/well added to 60 μL compound for a multiplicity of infection (MOI) of 0.002 (Long, A2), 0.003 (B1), or 0.004 (CH18537). Virus only (no drug) and cells only (no virus, no drug) controls were included on each plate. The compound-virus mix was incubated for 1 h at 37° C. and 5% CO2. After 1 h, medium was removed from HEp-2 cells by aspiration and wells washed once with 100 μL/well 1×PBS pH 7.4 (Fisher cat #MT21040CM). The compound-virus mix (100 μL/well) was added to the cells and incubated for 1 h at 37° C. and 5% CO2 prior to addition of 100 μL/well of DMEM with 2% HI-FBS, 1× P/S, 2 mM L-Gln (200 μL final vol) and incubation at 37° C. and 5% CO2. On day 6 post infection, supernatant was aspirated and cells fixed with 100 μL/well ice-cold 80% acetone in 1×PBS for 20 min at 4° C. The acetone was aspirated and plates air-dried for 20 min at room temperature. The plates were washed 3× with 200 μL/well 1×PBS, 0.05% Tween-20 (PBST) and blocked with 200 μL/well 5% non-fat dry milk (Fisher cat #50-195-952) in PBST for 1 h with shaking (500 rpm) on an orbital plate shaker. The blocking solution was discarded and cells incubated with 100 μL/well mouse anti-F protein antibody (MilliporeSigma cat #MAB8599) diluted 1:2,000 in diluent (blocking solution diluted 1:1 in 1×PBS pH 7.4) for 2 h with shaking. Plates were washed 5× with 300 μL/well PBST and incubated with 100 μL/well HRP-conjugated goat anti-mouse IgG antibody (SouthernBiotech cat #1030-05) diluted 1:1,000 in diluent for 1 h with shaking. Plates were washed 5× with 300 μL/well PBST and incubated with 100 μL/well TMB substrate (Fisher cat #BDB555214) for ˜5 min. The reaction was stopped with 100 μL/well 1N H2SO4. Absorbance was read at 450 nm with an EnSpire multimode plate reader (PerkinElmer). The mean A450 for the cells only control was subtracted from all A450 values, and the percent virus neutralisation calculated for each compound concentration, relative to the virus only control.

RSV Long strain = assay: RSV microneutralization assay, RSV Long strain; type: cell-based; settings: read-out: RSV Long EC50
Method: as §1, with “Duplicate” for “HEp-2 cells (ATCC #CCL-23) were seeded at 5E4/well/200 μL in DMEM (Fisher cat #11965118) supplemented with 10% heat-inactivated (HI) fetal bovine serum (HI-FBS; Fisher cat #10-082-147), 1× penicillin-streptomycin (P/S, 100 μg/mL; Fisher cat #MT30002C), and 1× L-glutamine (L-Gln, 2 mM; Fisher cat #25030-164) in 96-well tissue culture treated plates (Fisher cat #08-772-17) and incubated overnight at 37° C. and 5% CO2. Duplicate”

HEp-2 cells = assay: Inherent cytotoxicity run in parallel with the CPE assay (CellTiter-Glo); type: cell-based; settings: 4 days post treatment, DMSO, value in %
Method: (§2) In parallel with the CPE assay, the inherent cytotoxicity of several test articles was also determined. Briefly, ten four-fold serial dilutions of each TA starting at 10 μM were prepared in triplicate for inoculation with HEp-2 cells in 96-well culture plates. The cell viability was determined four days post treatment using CellTiter-Glo kit.

[2] = as above; type: cell-based; settings: human, HEp-2 cells, 4 days post treatment
Method: as §2

RSV = settings: prophylactic use; cited from earlier work
RSV strain CH18537 = assay: RSV microneutralization assay, RSV strain CH18537; type: cell-based; settings: human respiratory syncytial virus; MOI 0.004, HEp-2 cells, day 6
Method: (§3) HEp-2 cells (ATCC #CCL-23) were seeded at 5E4/well/200 μL in DMEM (Fisher cat #11965118) supplemented with 10% heat-inactivated (HI) fetal bovine serum (HI-FBS; Fisher cat #10-082-147), 1× penicillin-streptomycin (P/S, 100 μg/mL; Fisher cat #MT30002C), and 1× L-glutamine (L-Gln, 2 mM; Fisher cat #25030-164) in 96-well tissue culture treated plates (Fisher cat #08-772-17) and incubated overnight at 37° C. and 5% CO2. Duplicate 10-fold serial dilutions of compound in DMEM with 2% HI-FBS, 1× P/S, 2 mM L-Gln were prepared in 96-well tissue culture plates at 60 μL/well. The RSV Long strain (RetroVirox, San Diego), RSV A2 strain (Virapur, San Diego), RSV B1 strain (RetroVirox, San Diego), or RSV strain CH18537 (RetroVirox, San Diego), were diluted in DMEM with 2% HI-FBS, 1× P/S, 2 mM L-Gln and 60 μL/well added to 60 μL compound for a multiplicity of infection (MOI) of 0.002 (Long, A2), 0.003 (B1), or 0.004 (CH18537). Virus only (no drug) and cells only (no virus, no drug) controls were included on each plate. The compound-virus mix was incubated for 1 h at 37° C. and 5% CO2. […] Absorbance was read at 450 nm with an EnSpire multimode plate reader (PerkinElmer). The mean A450 for the cells only control was subtracted from all A450 values, and the percent virus neutralisation calculated for each compound concentration, relative to the virus only control.

RSV B1 strain = assay: RSV microneutralization assay, RSV B1 strain; type: cell-based; settings: human respiratory syncytial virus; MOI 0.003, HEp-2 cells, day 6
Method: as §3

[3] = 96 h, RSV A2, MOI 0.01, HEp-2 cells, day 4, crystal violet, average of duplicate wells, read-out: EC50
[4] = human respiratory syncytial virus
[5] = human respiratory syncytial virus, MOI 0.002, HEp-2 cells, day 6
[6] = human respiratory syncytial virus, HEp-2, […]

## C#CCOCCOCCNC(=N)N[C@H]1CCN(c2nc3cc([C@@H]4CCCCN4C(=O)c4cc(Cl)ccc4NS(C)(=O)=O)nn3cc2C)C1 [Int-6]
[1]; [3]
  EC50: 2200 nM

## C#CCOCCOCCOCCOCCC(=O)NCCCCn1c(CN2C(=O)C3(CCN(C(=O)OC(C)(C)C)CC3)c3ccncc32)nc2cc(Cl)ccc21 [Int-35]
RSV A2 strain; [4]
  EC50: 0.74 nM
RSV Long strain; [5]
  EC50: 0.34 nM

## C#CCOCCOCCOCCOCCOCCOCCOCCOCCNC(=O)CN(CC(=O)O)C(=O)CCCCN[C@H]1CCN(c2nc3cc([C@@H]4CCCCN4C(=O)c4cc(Cl)ccc4NS(C)(=O)=O)nn3cc2C)C1 [Int-25]
RSV Long strain; [5]
  EC50: 92 nM

## C#CCOCCOCCOCCOCCC(=O)N(CC(=O)NCCOCCOCCOCCOCCOCCOCCOCCOCCOCCOCCOCCOC)CC(=O)NCCn1cc(COCCOCCOCCOCCOCCOCCOCCCCN[C@H]2CCN(c3nc4cc([C@@H]5CCCCN5C(=O)c5cc(Cl)ccc5NS(C)(=O)=O)nn4cc3C)C2)nn1 [Int-27]
RSV Long strain; [5]
  EC50: 200 nM

## C[S+](C)[O-] [DMSO]
HEp-2 cells
  CC50: 1.17%

## NC(=O)c1ncn([C@@H]2O[C@H](CO)[C@@H](O)[C@H]2O)n1 [Ribavirin, reference compound]
[2]
  CC50 at 4 days: 174000 nM
[1]; [3]
  EC50: 25800 nM

## Palivizumab
RSV A2 strain
  EC50: 21 nM
RSV
  effective at reducing hospitalization rates: 60%
RSV Long strain; MOI 0.002, HEp-2 cells, day 6
  EC50: 17 nM

## C#CCOCCOCCOCCOCCO[C@H]1CN(c2nc3cc([C@@H]4CCCCN4C(=O)c4cc(Cl)ccc4NS(C)(=O)=O)nn3cc2C)C[C@H]1N [Int-02]
RSV Long strain; [5]
  EC50: 110 nM

## C#CCOCCOCCOCCOCCNCC1CN(c2nc3cc([C@@H]4CCCCN4C(=O)c4cc(Cl)ccc4NS(C)(=O)=O)nn3cc2C)C1 [Int-01]
RSV Long strain; [6]
  EC50: 98 nM

## C#CCOCCOCCOCCOCCN1CCN(CCCN[C@H]2CCN(c3nc4cc([C@H]5CCCCN5C(=O)c5cc(Cl)ccc5NS(C)(=O)=O)nn4cc3C)C2)CC1 [Int-10]
RSV Long strain; [6]
  EC50: 97 nM

## C#CCOCCOCCOCCOCCC(=O)N[C@H]1CCN(c2nc3cc([C@@H]4CCCCN4C(=O)c4cc(Cl)ccc4NS(C)(=O)=O)nn3cc2C)C1 [Int-9]
[2]
  CC50 at 4 days: 49700 nM
[1]; [3]
  EC50: 272 nM
RSV Long strain; [5]
  EC50: 1500 nM

## C#CCOCCOCCOCCOCCN[C@H]1CCN(c2nc3cc(C4CCCCN4C(=O)c4cc(Cl)ccc4NS(C)(=O)=O)nn3cc2C)C1 (some centres unmarked) [Int-7]
[2]
  CC50 at 4 days: 10400 nM
[1]; [3]
  EC50: 0.353 nM
RSV Long strain; [5]
  EC50: 18 nM

## Cc1cn2nc([C@@H]3CCCCN3C(=O)c3cc(Cl)ccc3NS(C)(=O)=O)cc2nc1N1CC[C@H](N)C1 [Presatovir, reference compound]
RSV A2 strain; [4]
  EC50: 0.014 nM
RSV strain CH18537
  EC50: 0.32 nM
RSV B1 strain
  EC50: 0.82 nM
[1]; [3]
  EC50: 0.0769 nM
RSV Long strain; [5]
  EC50: 0.0084 nM

## C#CCOCCOCCOCCOCCOCCOCCOCCOCCNC(=O)CN(CC(=O)NCCOCCOCCOCCOCCOCCOCCOCCOCCOCCOCCOCCOC)C(=O)CCCCN[C@H]1CCN(c2nc3cc(C4CCCCN4C(=O)c4cc(Cl)ccc4NS(C)(=O)=O)nn3cc2C)C1 (some centres unmarked) [Int-26]
RSV Long strain; [5]
  EC50: 170 nM

## C#CCOCCOCCOCCOCCN1CCN(CCCCN[C@H]2CCN(c3nc4cc([C@@H]5CCCCN5C(=O)c5cc(Cl)ccc5NS(C)(=O)=O)nn4cc3C)C2)CC1 [Int-24]
RSV Long strain; [5]
  EC50: > 1000 nM

## C#CCOCCOCCOCCOCCn1c(CN2C(=O)C3(CCN(C(=O)OC(C)(C)C)CC3)c3ccncc32)nc2cc(Cl)ccc21 [Int-41]
RSV A2 strain; [4]
  EC50: 15 nM
RSV B1 strain
  EC50: 3.6 nM
RSV Long strain; [5]
  EC50: 14 nM

## C#CCOCCOCCOCCOCCOCCOCCOCCCCN[C@H]1CCN(c2nc3cc([C@@H]4CCCCN4C(=O)c4cc(Cl)ccc4NS(C)(=O)=O)nn3cc2C)C1 [Int-05]
RSV Long strain; [5]
  EC50: > 1000 nM

## C#CCOCCOCCOCCOCCC(=O)NCCCCn1c(CN2C(=O)C3(CCN(C(=O)OC(C)C)CC3)c3ccncc32)nc2cc(Cl)ccc21 [Int-34]
RSV Long strain; [5]
  EC50: 0.13 nM

## C#CCOCCOCCOCCOCCN[C@@H]1CN(c2nc3cc([C@@H]4CCCCN4C(=O)c4cc(Cl)ccc4NS(C)(=O)=O)nn3cc2C)C[C@@H]1O [Int-03]
RSV Long strain; [5]
  EC50: > 1000 nM

## C#CCOCCOCCOCCOCCC(=O)N[C@@H](CS(=O)(=O)O)C(=O)N1CCN(CCCN[C@H]2CCN(c3nc4cc([C@@H]5CCCCN5C(=O)c5ccc(Cl)cc5NS(C)(=O)=O)nn4cc3C)C2)CC1 [Int-23]
RSV Long strain; [5]
  EC50: > 1000 nM

## C#CCOCCOCCOCCOCCOCCOCCOCCOCCN[C@H]1CCN(c2nc3cc([C@@H]4CCCCN4C(=O)c4cc(Cl)ccc4NS(C)(=O)=O)nn3cc2C)C1 [Int-8]
[1]; HEp-2, 96 h
  EC50: 2.29 nM
RSV Long strain; [6]
  EC50: 43 nM

## Cc1nnnn1N=Cc1ccc(O)c(C(c2ccc(O)cc2)c2cc(C=Nn3nnnc3C)ccc2O)c1 (centres unmarked) [VP14637, MDT 637, reference compound]
RSV Long strain; [5]
  EC50: 0.09 nM

## C#CCOCCOCCOCCOCCO[C@@H]1CN(c2nc3cc([C@@H]4CCCCN4C(=O)c4cc(Cl)ccc4NS(C)(=O)=O)nn3cc2C)C[C@H]1N [Int-04]
RSV Long strain; [5]
  EC50: > 1000 nM

From patent publication US20230082611A1, “COMPOSITIONS AND METHODS FOR THE TREATMENT OF RESPIRATORY SYNCYTIAL VIRUS” (Cidara Therapeutics, Inc., priority 2019, published 2023)
